Assays:
VanSC CA domain [1] = target: T1, VanSC CA domain (Enterococcus gallinarum, UniProt Q9KJT3); experiment: TNP-ATP displacement, fluorescence; assay type: binding; conditions: 50 mM Tris-Cl pH 7.5, 50 mM KCl, 5 mM MgCl2, 10 μM TNP-ATP; competitive
VanSA CA domain [2] = target: T2, VanSA CA domain (Enterococcus faecium, UniProt Q06240); experiment: TNP-ATP displacement, fluorescence; assay type: binding; conditions: 50 mM Tris-Cl pH 7.5, 50 mM KCl, 5 mM MgCl2, 10 μM TNP-ATP; competitive
T2 construct: gene vanS
T2 sequence (Q06240 221-384): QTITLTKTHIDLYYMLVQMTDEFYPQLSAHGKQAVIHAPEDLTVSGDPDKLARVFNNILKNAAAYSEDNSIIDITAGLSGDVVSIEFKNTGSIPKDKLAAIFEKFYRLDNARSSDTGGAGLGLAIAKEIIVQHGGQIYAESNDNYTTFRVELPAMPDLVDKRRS

EnvZ CA domain = EnvZ CA domain (Escherichia coli, UniProt P0AEJ4); experiment: biochemical
EnvZ CA domain, sequence (P0AEJ4 289-450): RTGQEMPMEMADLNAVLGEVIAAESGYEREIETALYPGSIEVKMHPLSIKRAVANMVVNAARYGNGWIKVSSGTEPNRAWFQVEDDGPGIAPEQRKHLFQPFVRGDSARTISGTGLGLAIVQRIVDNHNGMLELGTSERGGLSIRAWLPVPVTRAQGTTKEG

VanSC CA domain [3] = target: T1, VanSC CA domain; experiment: biochemical
VanSA CA domain [4] = target: T2, VanSA CA domain; experiment: biochemical

T1 sequence (Q9KJT3 208-361): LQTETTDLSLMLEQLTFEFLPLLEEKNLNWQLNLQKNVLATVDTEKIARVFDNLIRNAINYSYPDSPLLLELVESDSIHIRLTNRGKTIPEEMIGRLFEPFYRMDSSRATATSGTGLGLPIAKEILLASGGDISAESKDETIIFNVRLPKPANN

SMILES | TNP-ATP displacement, fluorescence (VanSC CA domain [1]) | TNP-ATP displacement, fluorescence (VanSA CA domain [2]) | Kd (EnvZ CA domain) [mM] | Kd (VanSC CA domain [3]) [mM] | Kd (VanSA CA domain [4]) [mM]
Nc1nc2c(ncn2[C@@H]2O[C@H](COP(=O)(O)OP(=O)(O)OP(=O)(O)O)[C@@H](O)[C@H]2O)c(=O)[nH]1 [GTP] | GTP bound less tightly than ATP to both VanSA and VanSC | GTP bound less tightly than ATP to both VanSA and VanSC |  |  | 
Nc1ncnc2c1ncn2[C@@H]1O[C@H](COP(=O)(O)OP(=O)(O)OP(=O)(O)O)[C@@H](O)[C@H]1O [ATP] |  |  | 0.0833 ± 0.0002 | 3.128 ± 0.0004 | 3.948 ± 0.001
